According to patent US11717508B2, “Compounds, compositions, and methods for inhibiting bacterial growth” (priority 2016, dated 2023):
Read-outs that look alike come from different tables or passages of the source.

Key:
Mtb CDC1551 = test: microbe, parasite or virus in culture; conditions: Mycobacterium tuberculosis, CDC1551, read-out: reduction of viability relative to DMSO treated control
DosT = DosT (Mycobacterium tuberculosis, UniProt P9WGK1); assay type: biochemical
TAG accumulation = assay type: cell-based, Mycobacterium tuberculosis
Mtb Erdman = test: microbe, parasite or virus in culture; conditions: Mycobacterium tuberculosis, 240 h, read-out: reduction of Mtb viability in the presence of 5 μM INH relative to cultures not treated with INH

Chain of DosT (P9WGK1 whole entry): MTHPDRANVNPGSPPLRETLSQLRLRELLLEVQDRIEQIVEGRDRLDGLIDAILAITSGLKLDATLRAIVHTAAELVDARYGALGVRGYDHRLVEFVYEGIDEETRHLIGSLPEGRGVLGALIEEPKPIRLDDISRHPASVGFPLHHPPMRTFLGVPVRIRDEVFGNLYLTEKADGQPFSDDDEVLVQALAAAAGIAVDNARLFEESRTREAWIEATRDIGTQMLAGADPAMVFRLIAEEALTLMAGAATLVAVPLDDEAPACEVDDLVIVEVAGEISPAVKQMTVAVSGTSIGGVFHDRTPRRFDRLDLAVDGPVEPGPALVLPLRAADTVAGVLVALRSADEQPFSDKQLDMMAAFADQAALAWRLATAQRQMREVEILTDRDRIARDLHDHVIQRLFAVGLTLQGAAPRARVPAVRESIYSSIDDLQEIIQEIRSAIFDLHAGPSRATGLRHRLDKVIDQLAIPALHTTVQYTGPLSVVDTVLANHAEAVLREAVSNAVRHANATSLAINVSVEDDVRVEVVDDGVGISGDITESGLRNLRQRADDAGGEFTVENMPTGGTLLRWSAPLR

Row | SMILES | inhibition at 10 µM (Mtb CDC1551) | effect on redox status of DosT heme (DosT; UV-visible spectra) | reduction in TAG accumulation (TAG accumulation; CDC1551, 40 μM, 6 days) | inhibition at 40 µM (Mtb Erdman) | concentration at which artemisinin modulates DosT heme / inhibits DosT (DosT; DTN-reduced DosT) | effect on redox status of DosT heme (DosT) | reduction in TAG accumulation (TAG accumulation)
1 | C[C@@H]1CC(C)(C)C[C@]2(C1)NC(=O)NC2=O (racemic) [HC102A, 7,7,9-trimethyl-1,3-diazaspiro[4.5]decane-2,4-dione] | ~50% | no impact on the redox status | 67% | ~30% |  |  | 
2 | C[C@@H]1CC[C@H]2[C@@H](C)C(=O)O[C@@H]3O[C@]4(C)CC[C@@H]1[C@]32OO4 [HC101A, artemisinin, reference compound] | ~50% |  | 74% | ~30% | 50 µM |  | 
3 | O=C(Nc1cccc(O)c1)c1cccc(NC(=O)c2cccs2)c1 [HC103A, N-[3-[(3 hydroxyphenyl)carbamoyl]phenyl]thiophene-2-carboxamide] | ~50% |  |  | ~30% |  | no impact on the redox status | 56%
